According to the supplement of paper PMC10307832:

Legend:
Assay in all cases: relative viability (nuclei count vs DMSO), 5 days (fraction); higher = more cells survive
BI-2536 = compound: CC[C@@H]1C(=O)N(C)c2cnc(Nc3ccc(C(=O)NC4CCN(C)CC4)cc3OC)nc2N1C1CCCC1 [BI-2536]
Method in brief: (§1)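 For viability, nuclei in each treated well were divided by nuclei in vehicle wells and the median across plates was taken. Lung cancer cell lines in 1536-well plates were pinned with five library-drug doses (not always all listed) spaced by √10, cultured 5 days without medium change, and imaged at 4× after Hoechst staining, with plates passing only at control CV below 25% and at least one doubling.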

NPK76-II-72-1 = compound: CC1CC(=O)N(C2=CN=C(N=C2N1C3CCCC3)NC4=C(C=C(C=C4)C(=O)NC5CCN(CC5)C)OC)C [NPK76-II-72-1]
Method in brief: as §1

BI-2536 + Pemetrexed = compound: CC[C@@H]1C(=O)N(C)c2cnc(Nc3ccc(C(=O)NC4CCN(C)CC4)cc3OC)nc2N1C1CCCC1 [BI-2536] + Nc1nc2[nH]cc(CCc3ccc(C(=O)N[C@@H](CCC(=O)O)C(=O)O)cc3)c2c(=O)[nH]1 [Pemetrexed] (partner 0.2 µM)
Method in brief: (§2)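 A single step with final 0.05% Triton X-100, 1% formaldehyde and 1 ug/ml Hoechst fixed the cells and stained nuclei 5 days after treatment. Lung cancer cell lines in 1536-well plates had been treated by pin tool the day after seeding with one drug alone or a fixed anchor-drug dose plus five library-drug doses (not always all listed) in √10 steps, and nuclei were counted on 4× images. Relative viability is the ratio of nuclei in treated wells to nuclei in vehicle wells, taken as the median of duplicate plates.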

NPK76-II-72-1 + OSI-027 = compound: CC1CC(=O)N(C2=CN=C(N=C2N1C3CCCC3)NC4=C(C=C(C=C4)C(=O)NC5CCN(CC5)C)OC)C [NPK76-II-72-1] + COc1cccc2cc(-c3nc([C@H]4CC[C@H](C(=O)O)CC4)n4ncnc(N)c34)[nH]c12 [OSI-027] (partner 0.5 µM)
Method in brief: as §2

| Cell Line | relative viability (BI-2536; 0.01 µM) | relative viability (BI-2536; 0.03162 µM) | relative viability (BI-2536; 0.1 µM) | relative viability (BI-2536; 0.3162 µM) | relative viability (BI-2536; 1 µM) | relative viability (NPK76-II-72-1; 0.01 µM) | relative viability (NPK76-II-72-1; 0.03162 µM) | relative viability (NPK76-II-72-1; 0.1 µM) | relative viability (NPK76-II-72-1; 0.3162 µM) | relative viability (NPK76-II-72-1; 1 µM) | relative viability (BI-2536 + Pemetrexed; first compound 0.01 µM) | relative viability (BI-2536 + Pemetrexed; first compound 0.03162 µM) | relative viability (BI-2536 + Pemetrexed; first compound 0.1 µM) | relative viability (BI-2536 + Pemetrexed; first compound 0.3162 µM) | relative viability (BI-2536 + Pemetrexed; first compound 1 µM) | relative viability (NPK76-II-72-1 + OSI-027; first compound 0.01 µM) | relative viability (NPK76-II-72-1 + OSI-027; first compound 0.03162 µM) | relative viability (NPK76-II-72-1 + OSI-027; first compound 0.1 µM) | relative viability (NPK76-II-72-1 + OSI-027; first compound 0.3162 µM) | relative viability (NPK76-II-72-1 + OSI-027; first compound 1 µM) |
| --- | --- | --- | --- | --- | --- | --- | --- | --- | --- | --- | --- | --- | --- | --- | --- | --- | --- | --- | --- | --- |
| 201T | 0.996 | 0.987 | 0.977 | 0.391 | 0.255 | 0.973 | 1 | 0.958 | 0.988 | 1.03 | 0.362 | 0.302 | 0.298 | 0.208 | 0.224 | 0.65 | 0.677 | 0.703 | 0.673 | 0.474 |
| A549 | 0.987 | 0.936 | 0.628 | 0.0475 | 0.0473 | 0.937 | 1.05 | 1.01 | 1 | 1.03 | – | – | – | – | – | – | – | – | – | – |
| A-427 | 0.996 | 0.961 | 0.589 | 0.137 | 0.151 | 0.943 | 1.07 | 0.984 | 0.929 | 0.977 | 1.01 | 1.07 | 0.504 | 0.198 | 0.196 | 0.497 | 0.526 | 0.452 | 0.376 | 0.434 |
| ABC-1 | 0.892 | 0.879 | 0.212 | 0.395 | 0.265 | 0.759 | 0.886 | 0.686 | 0.955 | 0.855 | – | – | – | – | – | 0.422 | 0.418 | 0.343 | 0.458 | 0.492 |
| BEN | 0.948 | 0.982 | 0.671 | 0.386 | 0.355 | 0.941 | 0.928 | 0.903 | 0.904 | 0.996 | 0.676 | 0.83 | 0.447 | 0.325 | 0.422 | 0.285 | 0.292 | 0.273 | 0.295 | 0.318 |
| CAL-12T | 0.882 | 0.849 | 0.718 | 0.159 | 0.198 | 0.933 | 1.02 | 1.01 | 0.927 | 1.15 | 1.04 | 0.955 | 0.623 | 0.195 | 0.131 | 0.626 | 0.787 | 0.601 | 0.683 | 0.823 |
| COR-L23 | 1.09 | 1.13 | 0.333 | 0.136 | 0.135 | 0.977 | 1.06 | 0.998 | 1.01 | 1.01 | 0.216 | 0.206 | 0.178 | 0.144 | 0.133 | 0.645 | 0.858 | 0.864 | 0.775 | 0.764 |
| COR-L 105 | 0.904 | 0.909 | 0.665 | 0.252 | 0.343 | 0.976 | 0.932 | 0.977 | 0.878 | 0.965 | 0.986 | 1.13 | 1.01 | 0.384 | 0.362 | 0.644 | 0.724 | 0.718 | 0.609 | 1.09 |
| Calu-6 | 1.02 | 0.861 | 0.51 | 0.117 | 0.111 | 0.988 | 1.05 | 1.03 | 0.954 | 0.996 | – | – | – | – | – | – | – | – | – | – |
| ChaGo-K-1 | 0.911 | 0.965 | 0.674 | 0.239 | 0.197 | 0.985 | 0.951 | 1.04 | 0.941 | 0.921 | 0.268 | 0.264 | 0.215 | 0.179 | 0.17 | 0.561 | 0.622 | 0.582 | 0.63 | 0.653 |
| EBC-1 | 1.04 | 0.804 | 0.432 | 0.224 | 0.202 | 0.917 | 1.02 | 0.94 | 0.984 | 1.07 | – | – | – | – | – | – | – | – | – | – |
| EKVX | 0.966 | 1.05 | 0.958 | 0.254 | 0.165 | 0.946 | 0.938 | 0.953 | 0.713 | 1.21 | 0.389 | 0.403 | 0.326 | 0.194 | 0.28 | 0.66 | 0.783 | 0.501 | 0.649 | 0.821 |
| EMC-BAC-2 | 0.979 | 1.03 | 0.505 | 0.238 | 0.246 | 0.916 | 0.96 | 0.981 | 0.921 | 1.05 | 0.44 | 0.429 | 0.367 | 0.309 | 0.285 | 0.372 | 0.351 | 0.391 | 0.361 | 0.415 |
| EPLC-272H | 0.852 | 0.707 | 0.117 | 0.26 | 0.0971 | 0.96 | 0.951 | 1.06 | 0.86 | 1.07 | 0.294 | 0.173 | 0.0902 | 0.106 | 0.0725 | 0.307 | – | 0.287 | 0.235 | 0.305 |
| H3255 | 0.86 | 0.872 | 0.573 | 0.257 | 0.29 | 0.918 | 0.938 | 0.995 | 0.72 | 1.1 | 0.543 | 0.528 | 0.492 | 0.248 | 0.268 | 0.445 | 0.483 | 0.531 | 0.416 | 0.588 |
| HARA | 1.01 | 1.15 | 0.823 | 0.141 | 0.159 | 0.922 | 0.987 | 0.845 | 0.924 | 1.05 | 0.258 | 0.313 | 0.222 | 0.146 | 0.126 | 0.393 | 0.424 | 0.545 | 0.345 | 0.67 |
| HCC-15 | 1.04 | 0.925 | 0.466 | 0.15 | 0.146 | 0.939 | 1.1 | 0.988 | 0.93 | 1.01 | 0.228 | 0.211 | 0.197 | 0.179 | 0.179 | 0.561 | 0.774 | 0.683 | 0.579 | 0.78 |
